Test results from patent US8642609B2, “Modulators of ATP-binding cassette transporters” (Vertex Pharmaceuticals Incorporated, priority 2003, dated 2014).

Biological target: T1, ΔF508-CFTR (Homo sapiens, UniProt P13569, DEL508-508)
T1 construct: expressed in transfected cells
Test: Membrane potential optical assay (FRET/VIPR), identification of correction compounds
Type: cell-based
How it was run: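 NIH3T3 cells stably expressing ΔF508-CFTR incubated 16 hrs at 37° C in serum-free medium with test compound; 27° C incubation as positive control. CFTR then activated with 10 μM forskolin plus 20 μM genistein in Cl^−-free medium; depolarization read by DiSBAC2(3)/CC2-DMPE FRET on VIPR.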

T1 sequence (P13569 with tags, fused parts or gaps DEL508-508): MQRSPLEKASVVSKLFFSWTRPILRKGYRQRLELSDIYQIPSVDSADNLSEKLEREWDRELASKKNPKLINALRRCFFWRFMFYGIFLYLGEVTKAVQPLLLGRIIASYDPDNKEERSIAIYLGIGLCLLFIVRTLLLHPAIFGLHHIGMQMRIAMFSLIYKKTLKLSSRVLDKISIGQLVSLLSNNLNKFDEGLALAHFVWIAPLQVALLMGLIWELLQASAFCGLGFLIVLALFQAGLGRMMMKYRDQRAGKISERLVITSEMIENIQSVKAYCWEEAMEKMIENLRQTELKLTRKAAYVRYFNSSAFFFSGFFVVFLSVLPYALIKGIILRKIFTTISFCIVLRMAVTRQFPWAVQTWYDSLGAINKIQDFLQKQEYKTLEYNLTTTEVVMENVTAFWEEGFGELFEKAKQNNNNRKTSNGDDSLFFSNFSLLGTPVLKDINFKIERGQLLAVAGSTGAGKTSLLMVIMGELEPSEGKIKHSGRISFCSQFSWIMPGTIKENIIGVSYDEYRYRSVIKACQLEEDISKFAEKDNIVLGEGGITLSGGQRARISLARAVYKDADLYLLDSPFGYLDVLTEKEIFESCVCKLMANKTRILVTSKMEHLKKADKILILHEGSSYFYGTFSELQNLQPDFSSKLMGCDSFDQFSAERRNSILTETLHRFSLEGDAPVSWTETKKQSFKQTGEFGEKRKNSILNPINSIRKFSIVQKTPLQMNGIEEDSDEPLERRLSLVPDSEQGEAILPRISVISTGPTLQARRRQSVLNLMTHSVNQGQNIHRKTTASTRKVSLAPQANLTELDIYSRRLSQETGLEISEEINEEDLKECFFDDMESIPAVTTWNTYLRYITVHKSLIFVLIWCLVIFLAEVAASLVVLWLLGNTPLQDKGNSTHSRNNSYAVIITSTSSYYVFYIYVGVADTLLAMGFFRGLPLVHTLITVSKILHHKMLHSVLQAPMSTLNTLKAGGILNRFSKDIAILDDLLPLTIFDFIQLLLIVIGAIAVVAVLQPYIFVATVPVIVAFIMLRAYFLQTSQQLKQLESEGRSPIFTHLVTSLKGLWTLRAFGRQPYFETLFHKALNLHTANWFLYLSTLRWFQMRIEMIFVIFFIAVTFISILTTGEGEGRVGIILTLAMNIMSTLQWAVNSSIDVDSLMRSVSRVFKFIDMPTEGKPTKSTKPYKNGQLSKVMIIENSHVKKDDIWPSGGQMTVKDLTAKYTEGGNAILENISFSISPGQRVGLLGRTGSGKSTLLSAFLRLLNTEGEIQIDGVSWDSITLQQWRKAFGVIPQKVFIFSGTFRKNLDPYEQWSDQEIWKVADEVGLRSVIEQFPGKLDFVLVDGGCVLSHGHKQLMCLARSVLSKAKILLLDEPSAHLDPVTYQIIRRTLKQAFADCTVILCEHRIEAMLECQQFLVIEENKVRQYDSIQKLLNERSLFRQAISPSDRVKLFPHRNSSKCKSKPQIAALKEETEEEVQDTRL

Row | SMILES | EC50 | Emax (relative efficacy) | % Efficacy (relative efficacy)
1 | COc1ccc(S(=O)(=O)N2CCN(C(C)c3nc(N4CC[C@@H](NC(C)=O)C4)c4ccccc4n3)CC2)cc1 (stereo partly shown) [compound 394] | 25 to 60 µM | 25 to 100% | 
2 | COc1ccc(S(=O)(=O)N2CCN(C(C)c3nc(N(C)CC4OCCO4)c4ccccc4n3)CC2)cc1 (stereo not shown) [compound 395] | 10 to 25 µM | 25 to 100% | 
3 | COc1ccc(S(=O)(=O)N2CCN(C(C)c3nc(OC4CCCCC4)c4nccnc4n3)CC2)cc1 (stereo not shown) [compound 396] | 10 to 25 µM | > 100% | 
4 | COc1ccc(S(=O)(=O)N2CCN(C(=O)c3nc(N4CCCCC4)c4ccccc4n3)CC2)cc1 [compound 402] | 25 to 60 µM | < 25% | 
5 | COc1ccc(S(=O)(=O)N2CCC(C(C)c3nc(OC4CCCCC4)c4ccccc4n3)CC2)cc1 (stereo not shown) [compound 404] | < 10 µM | > 100% | 
6 | COc1ccc(S(=O)(=O)N2CCC(C(C)c3nc4ccccc4c(=O)[nH]3)CC2)cc1 (stereo not shown) [compound 405] | 10 to 25 µM | 25 to 100% | 

Second part, the molecule after the results:

Row | EC50 | Emax (relative efficacy) | % Efficacy (relative efficacy) | SMILES
7 | 10 to 25 µM |  | ++ (“++” means between 25% to 100%) | COc1ccc(S(=O)(=O)N2CCN(C(C)c3nc(OC4CCCC4)c4ccccc4n3)CC2)cc1 (stereo not shown) [compound 397]
8 | < 10 µM | > 100% |  | COc1ccc(S(=O)(=O)N2CCN(C(C)c3nc(OC4CCC4)c4ccccc4n3)CC2)cc1 (stereo not shown) [compound 398]
9 | < 10 µM | 25 to 100% |  | COc1ccc(S(=O)(=O)N2CCN(C(C)c3nc(OC4CCC(C)CC4)c4ccccc4n3)CC2)cc1 (stereo not shown) [compound 399]
10 | < 10 µM | > 100% |  | COc1ccc(S(=O)(=O)N2CCN(C(C)c3nc(OC4CCC5CC4C5)c4ccccc4n3)CC2)cc1 (stereo not shown) [compound 400]
11 | < 10 µM | > 100% |  | COc1ccc(S(=O)(=O)N2CCC(C(C)c3nc(OC4CCCC4)c4ccccc4n3)CC2)cc1 (stereo not shown) [compound 403]
